Laboratory results published in patent US12480846B2, “Multi-mode separation for target detection and cell growth monitoring” (THE REGENTS OF THE UNIVERSITY OF MICHIGAN, priority 2012, dated 2025).

System: E. coli O157:H7
Experiment: Solid-interface AMBR biosensor measurement of bacterial growth in 384 well plate
Assay type: cell-based
Settings: antibiotic above the MIC in the surrounding media, 0.5 μg/ml gentamicin
Description: In previous AMBR applications at air-water and/or oil-water interfaces, the rotation period of the sensor slows down in response to bacterial growth; however, on solid interfaces there is an additional “dip” in the beginning of the data. Typical results for measuring bacterial growth, using the solid interface AMBR method are shown in FIG. 11, where the initial speeding up and then slowing down can be seen. […] This is true since the dip (or the slowing down) was not seen in wells with the same amount of bacteria, but that lacked nutrients (performed in PBS buffer), or contained antibiotics above the minimum inhibition concentrations.
Laboratory measurements have established that the speeding up happens with motile and non-motile, gram-negative and gram-positive cells, and with rod-like and coccal bacteria. […]
Anti-E. coli O157 functionalized, 2.8 μm diameter magnetic particles (20 μl, Invitrogen 710-03) were mixed with bacteria diluted to 10^4 CFU/ml (0.9 ml), and allowed to incubate (10 min at 37° C.) with end-over-end agitation. […] For colony counting, the samples were diluted appropriately, plated on a MH plate and the colonies were counted 18 hours later to obtain accurate bacterial concentrations and magnetic separation capture efficiencies. […]

gentamicin
change in rotational period of AMBR biosensor (bacterial growth response): no change in rotational period
